Assay results published in patent US20220323594A1, “LIPIDATED CATIONIC PEPTIDE-PEG COMPOSITIONS FOR NUCLEIC ACID DELIVERY” (NUTCRACKER THERAPEUTICS, INC., priority 2019, published 2022).
Read-outs that look alike come from different tables or passages of the source.

What was measured:
[1] = mRNA encapsulation by fluorescence of Qubit RNA HS dye before and after lysis with Triton X-100; assay type: physicochemical; conditions: percentage of mRNA encapsulation; Fluc mRNA/peptoid formulation, 5:1 mass ratio
Summary of the method: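 Encapsulation was measured by comparing Qubit RNA HS fluorescence of intact particles with that after Triton X-100 lysis. Particles were amino-lipidated cationic peptoids complexed with firefly luciferase mRNA at 5:1 peptoid:cargo by mass, mixed by pipetting.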

[2] = MTT viability assay after treatment with Fluc mRNA/amino lipidated peptoid formulations; assay type: cell-based; conditions: human, HeLa cells
Summary of the method: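 Viability relative to untreated cells came from the formazan read-out after 2 h with 1.5 mg/mL MTT and acidic isopropanol/Triton lysis. The MTT step followed an 8 h exposure to 100 ng/well Fluc mRNA in 5:1 peptoid:mRNA, 2% DMG-PEG2000 formulations and a further 48 h of culture.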

[3] = Dynamic light scattering (DLS) of mRNA/peptoid formulations: particle size and polydispersity; assay type: physicochemical; conditions: Fluc mRNA/peptoid formulation; for Size PDI: size polydispersity index by DLS, 5:1 mass ratio; for Size (nm): volume average particle size/diameter by DLS, 5:1 mass ratio peptoid:cargo
Summary of the method: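 Volume-average particle diameter (nm) and PDI were measured by dynamic light scattering. Formulations combined peptoid diluted in ethanol with Fluc mRNA in pH 5.5 PBS at 1:3 by volume, mixed by pipetting at 5:1 peptoid:mRNA by mass.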

HeLa cells [4] = experiment: In vitro Fluc expression with variable peptoid:mRNA mass ratio, 2% DMG-PEG2000; assay type: cell-based; conditions: 24 h; for Observed Luciferase Expression (RLU) for Given Formulation Mass Ratio 2:1: 2% (w/w) DMG-PEG2000, peptoid:mRNA 2:1; for Observed Luciferase Expression (RLU) for Given Formulation Mass Ratio 3.5:1: 2% (w/w) DMG-PEG2000, peptoid:mRNA 3.5:1; for Observed Luciferase Expression (RLU) for Given Formulation Mass Ratio 5:1: 2% (w/w) DMG-PEG2000, peptoid:mRNA 5:1; for Observed Luciferase Expression (RLU) for Given Formulation Mass Ratio 7.5:1: 2% (w/w) DMG-PEG2000, peptoid:mRNA 7.5:1
Summary of the method: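 HeLa cells exposed 24 hours to amino lipidated peptoid/Fluc mRNA formulations containing 2% w/w DMG-PEG2000 (relative to peptoid), across peptoid:mRNA mass ratios of 2:1 to 7.5:1. Read-out: average luciferase bioluminescence (RLU).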

HeLa cells [5] = experiment: In vitro expression of firefly luciferase (Fluc) after treatment with Fluc mRNA/amino lipidated peptoid formulations, no PEG or 2% DMG-PEG2000; assay type: cell-based
Summary of the method: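 HeLa cells received 100 ng/well Fluc mRNA complexed with amino lipidated peptoid at 5:1 peptoid:mRNA (w/w), either peptoid alone or with 2% w/w DMG-PEG2000. Expression quantified as RLU by luminescence at 6 and 24 h.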

[6] = no PEG, peptoid:Fluc mRNA 5:1 w/w, 100 ng/well, 6 h of treatment
[7] = no PEG, peptoid:Fluc mRNA 5:1 w/w, 100 ng/well, 24 h of treatment
[8] = with 2% (w/w) DMG-PEG2000, peptoid:mRNA 5:1, 6 h after treatment
[9] = with 2% (w/w) DMG-PEG2000, peptoid:mRNA 5:1, 24 h after treatment

| % Encapsulation [1] | Size PDI [3] | Size (nm) [3] | Structure (SMILES) | viability at 8 h, 500 ng/well ([2]; MTT, 2% (w/w) DMG-PEG2000, 5:1 mass ratio, 100 ng/well mRNA for 8 h then 48 h growth, normalized to untreated cells, read-out: Relative Viability (%) 2% PEG) | viability at 8 h, 500 ng/well ([2]; MTT, formulation alone (no PEG), 5:1 mass ratio, 100 ng/well mRNA for 8 h then 48 h growth, normalized to untreated cells, read-out: Relative Viability (%) No PEG) | Observed Luciferase Expression (RLU) for Given Formulation Mass Ratio 2:1 (HeLa cells [4]) | Observed Luciferase Expression (RLU) for Given Formulation Mass Ratio 3.5:1 (HeLa cells [4]) | Observed Luciferase Expression (RLU) for Given Formulation Mass Ratio 5:1 (HeLa cells [4]) | Observed Luciferase Expression (RLU) for Given Formulation Mass Ratio 7.5:1 (HeLa cells [4]) | Luciferase Expression (RLU) 6 h (HeLa cells [5]; [6]) | Luciferase Expression (RLU) 24 h (HeLa cells [5]; [7]) | Luciferase Expression (RLU) 6 h (HeLa cells [5]; [8]) | Luciferase Expression (RLU) 24 h (HeLa cells [5]; [9]) | viability at 8 h, 500 ng/well ([2]; Relative Viability (%) 2% PEG) | viability at 8 h, 500 ng/well ([2]; Relative Viability (%) No PEG) |
| --- | --- | --- | --- | --- | --- | --- | --- | --- | --- | --- | --- | --- | --- | --- | --- |
| 85.4% | 1 | 1486 nm | CCCCCCCCCCN(CC(N)=O)C(=O)CN(CCCCCCCCCC)C(=O)CN(CCN)C(=O)CN(CCN)C(=O)CN(CCN)C(=O)CN(CCN)C(=O)CN(CCN)C(=O)CN(CCN)C(=O)CN(CCN)C(=O)CN(CCN)C(=O)CNCCN [Compound 16] | – | – | 1.01E+02 RLU | 4.16E+01 RLU | 2.55E+01 RLU | 1.47E+01 RLU | 7.33E+00 RLU | 1.67E+01 RLU | 2.63E+01 RLU | 5.00E+00 RLU | 90.8% | 89.4% |
| 8.4% | 0.455 | 282.8 nm | CCCCCCCCCCN(CC(N)=O)C(=O)CN(CCCCCCCCCC)C(=O)CN(CCc1ccccc1)C(=O)CN(CCc1ccccc1)C(=O)CN(CCCN)C(=O)CN(CCc1ccccc1)C(=O)CN(CCc1ccccc1)C(=O)CN(CCCN)C(=O)CN(CCc1ccccc1)C(=O)CN(CCc1ccccc1)C(=O)CNCCCN [Compound 30] | – | – | 4.27E+04 RLU | 3.43E+03 RLU | 3.46E+03 RLU | 1.47E+03 RLU | 2.79E+03 RLU | 1.29E+04 RLU | 1.79E+03 RLU | 1.52E+03 RLU | 88% | 86.5% |

Second part, the compound before the results:

| Structure (SMILES) | % Encapsulation [1] | Size PDI [3] | Size (nm) [3] | viability at 8 h, 500 ng/well ([2]; MTT, 2% (w/w) DMG-PEG2000, 5:1 mass ratio, 100 ng/well mRNA for 8 h then 48 h growth, normalized to untreated cells, read-out: Relative Viability (%) 2% PEG) | viability at 8 h, 500 ng/well ([2]; MTT, formulation alone (no PEG), 5:1 mass ratio, 100 ng/well mRNA for 8 h then 48 h growth, normalized to untreated cells, read-out: Relative Viability (%) No PEG) | Observed Luciferase Expression (RLU) for Given Formulation Mass Ratio 2:1 (HeLa cells [4]) | Observed Luciferase Expression (RLU) for Given Formulation Mass Ratio 3.5:1 (HeLa cells [4]) | Observed Luciferase Expression (RLU) for Given Formulation Mass Ratio 5:1 (HeLa cells [4]) | Observed Luciferase Expression (RLU) for Given Formulation Mass Ratio 7.5:1 (HeLa cells [4]) | Luciferase Expression (RLU) 6 h (HeLa cells [5]; [6]) | Luciferase Expression (RLU) 24 h (HeLa cells [5]; [7]) | Luciferase Expression (RLU) 6 h (HeLa cells [5]; [8]) | Luciferase Expression (RLU) 24 h (HeLa cells [5]; [9]) | viability at 8 h, 500 ng/well ([2]; Relative Viability (%) 2% PEG) | viability at 8 h, 500 ng/well ([2]; Relative Viability (%) No PEG) |
| --- | --- | --- | --- | --- | --- | --- | --- | --- | --- | --- | --- | --- | --- | --- | --- |
| CCCCCCCCCCN(CC(N)=O)C(=O)CN(CCCCCCCCCC)C(=O)CN(CCCCCCCCCC)C(=O)CN(CCc1ccccc1)C(=O)CN(CCc1ccccc1)C(=O)CN(CCN)C(=O)CN(CCc1ccccc1)C(=O)CN(CCc1ccccc1)C(=O)CN(CCN)C(=O)CN(CCc1ccccc1)C(=O)CN(CCc1ccccc1)C(=O)CNCCN [Compound 7] | 88.4% | 0.177 | 296.7 nm | 96% | 78% | 1.61E+04 RLU | 1.43E+04 RLU | 2.20E+04 RLU | 5.92E+03 RLU | 6.45E+03 RLU | 9.71E+03 RLU | 2.77E+03 RLU | 1.81E+03 RLU | – | – |
| CCCCCCCCCCN(CC(N)=O)C(=O)CN(CCCCCCCCCC)C(=O)CN(CCc1ccccc1)C(=O)CN(CCc1ccccc1)C(=O)CNCCN [Compound 9] | 73.9% | 0.122 | 367.9 nm | – | – | 2.28E+02 RLU | 3.67E+02 RLU | 9.91E+02 RLU | 1.82E+02 RLU | 1.52E+02 RLU | 8.57E+01 RLU | 1.38E+02 RLU | 3.33E+01 RLU | 107% | 99.3% |
| CCCCCCCCCCN(CC(N)=O)C(=O)CN(CCCCCCCCCC)C(=O)CN(CCc1ccccc1)C(=O)CN(CCc1ccccc1)C(=O)CN(CCN)C(=O)CN(CCc1ccccc1)C(=O)CN(CCc1ccccc1)C(=O)CN(CCN)C(=O)CN(CCc1ccccc1)C(=O)CN(CCc1ccccc1)C(=O)CN(CCN)C(=O)CN(CCc1ccccc1)C(=O)CN(CCc1ccccc1)C(=O)CNCCN [Compound 11] | 87.8% | 0.038 | 354.9 nm | – | – | 2.79E+04 RLU | 3.14E+04 RLU | 4.48E+04 RLU | 4.36E+03 RLU | 1.15E+03 RLU | 1.22E+03 RLU | 3.90E+02 RLU | 5.23E+02 RLU | 104% | 104% |
| CCCCCCCCCCCCN(CC(N)=O)C(=O)CN(CCCCCCCCCCCC)C(=O)CN(CCc1ccccc1)C(=O)CN(CCc1ccccc1)C(=O)CN(CCN)C(=O)CN(CCc1ccccc1)C(=O)CN(CCc1ccccc1)C(=O)CN(CCN)C(=O)CN(CCc1ccccc1)C(=O)CN(CCc1ccccc1)C(=O)CNCCN [Compound 3] | 95.9% | 0.247 | 255.3 nm | – | – | 4.42E+03 RLU | 2.56E+03 RLU | 4.53E+03 RLU | 2.69E+03 RLU | 2.27E+02 RLU | 2.99E+02 RLU | 3.14E+02 RLU | 4.68E+02 RLU | 95.3% | 91.2% |
| CCCCCCCCCCN(CC(N)=O)C(=O)CN(CCCCCCCCCC)C(=O)CN(CCc1ccccc1)C(=O)CN(CCN)C(=O)CN(CCc1ccccc1)C(=O)CN(CCN)C(=O)CN(CCc1ccccc1)C(=O)CNCCN [Compound 13] | 90.4% | 0.447 | 822.6 nm | – | – | 2.68E+01 RLU | 1.74E+01 RLU | 1.39E+02 RLU | 5.36E+00 RLU | 3.67E+00 RLU | 9.67E+00 RLU | 3.27E+01 RLU | 2.67E+00 RLU | 85.9% | 90.2% |
